According to patent US11548885B2, “NLRX1 ligands” (Landos Biopharma, Inc., priority 2020, dated 2023):

Columns and labels:
CD4+ T cells = test: Immunological screening in vitro in CD4+ T cells (flow cytometry of TNFα+ and IFNγ+ cells); assay type: cell-based, C57BL/6 mice; conditions: 50 nanomolar, 24 h; for production of TNFα / TNF+ CD4+ T cells: anti-CD3/CD28, PMA and ionomycin last 6 h
Excerpt: Cell culture. Spleens were excised from C57BL/6 mice. Spleens were crushed between the frosted ends of microscope slides and filtered to provide a cellular suspension. Red blood cells were lysed through hypotonic lysis. Remaining cells were washed and filtered. CD4+ T cells were enriched within the suspension using magnetic sorting based negative selection. Cells were collected and plated within 96 well plates coated with anti-CD3/CD28 and cultured in the presence of NX-64-2, NX-64-3, NX-64-4, NX-64-5, or NX-64-9 at 0 or 50 nanomolar for 24 h. During the last 6 h of culture, cells were stimulated with phorbol 12-myristate-13-acetate (PMA) and ionomycin.
Immunological analysis. Cells were collected from 96 well plates and stained with a cocktail of antibodies for immunophenotyping by flow cytometry. Culture supernatant was collected and assayed for cytokine concentrations by cytometric bead array. Data was captured on a BD FACS Celesta and analyzed using FACSDiva.

[1] = tested on: mice challenged with MOG emulsion; test: MOG35-55 induced experimental autoimmune encephalomyelitis model; assay type: in vivo, C57BL6 mice; conditions: oral 20 mg/kg daily
OVA-induced model = OVA-induced model of experimental asthma; assay type: in vivo, C57BL6 mice; conditions: oral 20 mg/kg daily days 14-17, day 18, flow cytometry
Procedure: OVA-induced model. C57BL6 mice were immunized with 10 μg of ovalbumin (OVA) in aluminum hydroxide gel by intraperitoneal injection on day 0 and 7 of the experiment. Mice were then exposed to OVA (8% w/v) by aerosolization for 25 minutes daily between days 14 and 17. Treatment with NX-64-3 (20 mg/kg) or vehicle control occurred daily between days 14 and 17 by oral gavage. Dosage was calculated based off mean body weights. Immunological analysis. Lungs were collected on day 18. Lung tissue was minced and digested in RPMI supplemented with FBS, HEPES, and calcium chloride containing 300 U/mL collagenase and 50 U/mL DNase for 45 minutes at 37° C. After filtration, red blood cells were lysed. Cells were labeled with mixtures of extracellular (CD45, CD3, CD4, CD8, MHCII, CD11b, CD11c, SiglecF, Ly6C) and intracellular (IL10) antibodies in a sequential live staining in 96-well plates in preparation for flow cytometry. Data was captured on a BD FACS Celesta and analyzed using FACSDiva.

mice challenged with DSS = test: DSS model of colitis (acute model of IBD); assay type: in vivo; conditions: oral 20 mg/kg once daily
Procedure: DSS model. Mice were given DSS in drinking water for seven days to induce disruption of the epithelial layer. At project initiation, mice were 8 weeks of age and began dosing 24 hours after being placed on DSS. Mice were weighed and scored daily for symptoms of disease (diarrhea, rectal bleeding, rectal inflammation, overall behavior). NX-64-3 was prepared within a 0.5% methylcellulose (12-15 cP) solution. Dosage used was 20 mg/kg delivered once daily. Dosage was calculated based off mean body weights for each gender. Oral dosage was delivered by orogastric gavage of dosage in 0.2 mL volume. Flow Cytometry. Colons were collected into RPMI/FBS buffer containing collagenase (300 U/mL) and DNase (50 U/mL) for digestion. Tissues were digested for 60 minutes under stirring at 37° C. Resultant cellular suspensions were filtered through 100 μm strainers, centrifuged (300×g, 8 min), and washed in fresh RPMI. Following filtration of the resulting single cell suspensions, immune cells were purified by Percoll gradient of cell-containing 40% Percoll overlayed onto 70% Percoll solution. After centrifugation, interphase was collected and washed to obtain enriched colonic lamina propria cell fractions. Cells were labeled with mixtures of extracellular (CD45, CD3, CD4, CD8, CD19, NK1.1, F4/80, CD11b, Gr1) antibodies in a sequential live staining in 96-well plates. […]

[2] = day 18, RNA normalized to beta-actin

SMILES | production of TNFα / TNF+ CD4+ T cells (CD4+ T cells) | recovery from neurological deficiencies [1] | expression of II1b in spinal cord [1, 2] | expression of Tnf in spinal cord [1, 2] | disease activity index ([1]; scored 0-4 daily) | percentage of IL10+CD4+ T cells within the lung (OVA-induced model) | percentage of eosinophils within the lung (OVA-induced model) | severity of macroscopic lesions (colon) (mice challenged with DSS; 7 days of DSS) | presence of neutrophils in the colonic lamina propria (mice challenged with DSS; day 7, flow cytometry) | production of IFNγ / IFNγ+ CD4+ T cells, in words (CD4+ T cells; relative to vehicle control)
Cn1cc(-c2ccc3[nH]c(Cc4nc(-c5cc(=O)cc[nH]5)no4)nc(=O)c3c2)cn1 [NX-64-9, 2-((3-(4-oxo-1H-pyridin-2-yl)-1,2,4-oxadiazol-5-yl)methyl)-6-(1-methyl-1H-pyrazol-4-yl)quinazolin-4(1H)-one] | significant reduction |  |  |  |  |  |  |  |  | 
O=c1nc(Cc2nc(C3=CCCCO3)no2)[nH]c2ccc(-c3ccc(O)nc3)cc12 [NX-64-3, 2-((3-(3,4-dihydro-2H-pyran-6-yl)-1,2,4-oxadiazol-5-yl)methyl)-6-(6-hydroxypyridin-3-yl)quinazolin-4(1H)-one] | significant reduction | accelerated | reduced | reduced | reduced | increased | reduced | decreased | decreased | greatest magnitude of response
Cn1cc(-c2ccc3[nH]c(Cc4nc(C5=CCCCO5)no4)nc(=O)c3c2)cn1 [NX-64-4, 2-((3-(3,4-dihydro-2H-pyran-6-yl)-1,2,4-oxadiazol-5-yl)methyl)-6-(1-methyl-1H-pyrazol-4-yl)quinazolin-4(1H)-one] | significant reduction |  |  |  |  |  |  |  |  | 
